Experimental data reported in US9181214B2 (RHIZEN PHARMACEUTICALS SA, priority 2011, dated 2015).

How the values were obtained:
human GPR119 = target: T1, human GPR119 (Homo sapiens, UniProt Q8TDV5); experiment: In vitro cyclic AMP assay (Cisbio HTRF) in HEK293 cells transfected with human GPR119; format: cell-based; details: cAMP; for activation at 10 µM: 1 h, % Induction @ 10 μM; for EC50: Emax varies between 65 to 80%
T1 construct: expressed in transfected cells; host or cells: HEK293 (transient transfection, Lipofectamine 2000)
T1 sequence (Q8TDV5 1-335): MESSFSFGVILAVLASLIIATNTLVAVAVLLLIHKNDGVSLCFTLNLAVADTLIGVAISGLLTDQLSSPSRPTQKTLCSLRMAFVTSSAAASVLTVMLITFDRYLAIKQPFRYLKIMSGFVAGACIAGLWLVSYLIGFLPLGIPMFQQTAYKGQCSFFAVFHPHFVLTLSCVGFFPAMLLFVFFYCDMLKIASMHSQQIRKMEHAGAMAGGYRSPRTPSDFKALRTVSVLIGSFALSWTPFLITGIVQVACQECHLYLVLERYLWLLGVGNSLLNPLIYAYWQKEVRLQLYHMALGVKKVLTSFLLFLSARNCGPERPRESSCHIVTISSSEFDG
Description: A. In Vitro Cyclic AMP Assay:
cAMP measurements were done using a Cisbio dynamic 2 HTRF kit (Cisbio, Bedford, Mass.) according to the manufacturer's protocol. Briefly, HEK293 cells (0.2×10^6/well) were plated in a 24 well plate and incubated overnight at 37° C. Cells were transfected with either empty vector DNA or human GPR119 expression plasmid DNA using Lipofectamine 2000 (Invitrogen). After 24 h, transfected cells were harvested, counted and plated at 1000 cells/5 ul in a black 384 welled small volume plate. Cells were treated with desired concentrations of compounds and incubated for 60 min at room temperature. Lysis buffer containing cAMP-d2 and cryptate conjugate were added and incubated for 1 h. HRTF ratio was measured on a microplate reader (BMG Labtech., Germany) at an excitation wavelength of 337 nm and emission wavelengths of 665 and 620 nm with an integration time of 400 μsec. Data were analyzed using Graphpad Prism (Graphpad software; San Diego Calif.) for EC50 determination.
The results are as given in Table I as % Induction@ 10 μM, Table II as % Induction@ 10 μM and EC 50 in nM

C57Bl/6J mice = experiment: Oral glucose tolerance test (OGTT) in C57Bl/6J mice; format: in vivo; details: single oral dose 1 h before 2.0 g/kg oral glucose, sitagliptin 10 mg/kg, vs vehicle
Description: FIG. 1 is a graph of blood glucose over time in C57BI/6J mice according to the oral glucose tolerance test (Biological Assay Procedure E) before and after oral administration of vehicle (control), compound A (Example 64@ 30 mg/kg), or sitagliptin (10 mg/kg @ 10 mg/kg).
FIG. 2 is a graph of blood glucose over time in C57BI/6J mice according to the oral glucose tolerance test (Biological Assay Procedure E) before and after oral administration of vehicle (control), compound […] (Example 42 @ 10 mg/kg), or sitagliptin (10 mg/kg @ 10 mg/kg).
E: Oral Glucose Tolerance Test (OGTT) in C57Bl/6J Mice:
After the quarantine period, 6 hr fasted animals were randomized and divided into various groups depending on their blood glucose levels. Test compounds or standard drug (sitagliptin) was prepared as a suspension in a vehicle consisting of 0.5% methylcellulose and Tween 80 as a suspending agent. The standard drug, Compound A (example-64), Compound B (example-42) or vehicle were administered by oral gavage in a volume of 10 mL/kg. 1 h after the test compounds, standard drug and vehicle administration, blood was sampled from the tail vein of mice at time 0 min (baseline) and at 30, 60, 90 and 120 min after an oral glucose load of 2.0 g/kg of body weight. Food, but not water, was withheld from the cages during the course of experiment. The area under curve (AUC) of experimental animals was compared with that of vehicle-treated control group. The results are shown in FIGS. 1 and 2 and are discussed below.

[1] = FIG. 2 study, Compound B 10 mg/kg
[2] = FIG. 1 study, Compound A 30 mg/kg

| Compound | melting point [°C] | activation at 10 µM (human GPR119; Table I) [%] | also measured |
| --- | --- | --- | --- |
| CS(=O)(=O)N1CCC(c2nc3cc(-c4ccc(-n5cnnn5)cc4F)ccc3o2)CC1 [EXAMPLE-35, 5-[2-fluoro-4-(1H-tetrazol-1-yl)phenyl]-2-[1-(methylsulfonyl)piperidin-4-yl]benzo[d]oxazole] | 209 to 212 | 0.28 | – |
| CNC(=O)c1ccc(-c2ccc3oc(C4CCN(C(=O)OC(C)C)CC4)nc3c2)cc1F [EXAMPLE-42, Isopropyl 4-{5-[3-fluoro-4-(methylcarbamoyl)phenyl]benzo[d]oxazol-2-yl}piperidine-1-carboxylate] | 116 to 120 | 78.4 | lowered AUCglucose (C57Bl/6J mice; [1]): 22%; EC50 (human GPR119; Table I): 25 to 50 nM |
| CC(C)OC(=O)N1CCC(c2nc3cc(-c4ccc(C(N)=O)cn4)ccc3o2)CC1 [EXAMPLE-36, Isopropyl 4-[5-(5-carbamoylpyridin-2-yl)benzo[d]oxazol-2-yl]piperidine-1-carboxylate] | 227 to 230 | 4.83 | – |
| CC(C)(C)OC(=O)N1CCC(c2ccc3nc(-c4ccc(C(F)(F)F)cc4)oc3c2)CC1 [EXAMPLE-84, Tert-butyl 4-{2-[4-(trifluoromethyl)phenyl]benzo[d]oxazol-6-yl}piperidine-1-carboxylate] | 174 to 179 | – | activation at 10 µM (human GPR119; Table II): 13.2% |
| CC(C)C(=O)N1CCC(c2nc3cc(-c4ccc(C(N)=O)c(F)c4)ccc3o2)CC1 [EXAMPLE-43, 2-Fluoro-4-[2-(1-isobutyrylpiperidin-4-yl)benzo[d]oxazol-5-yl]benzamide] | 193 to 196 | 48.8 | – |
| CNC(=O)c1ccc(-c2ccc3oc(C4CCN(C(=O)OC(C)C)CC4)nc3c2)cc1C [EXAMPLE-49, Isopropyl 4-{5-[3-methyl-4-(methylcarbamoyl)phenyl]benzo[d]oxazol-2-yl}piperidine-1-carboxylate] | 151 to 154 | 32.9 | – |
| CC(C)CC(=O)N1CCC(c2nc3cc(-c4ccc(-n5cnnn5)cc4F)ccc3o2)CC1 [EXAMPLE-40, 1-{4-[5-(2-fluoro-4-(1H-tetrazol-1-yl)phenyl]benzo[d]oxazol-2-yl]piperidin-1-yl}-3-methylbutan-1-one] | 168 to 172 | 21.9 | – |
| COCCN1CCC(c2nc3cc(-c4ccc(-n5cnnn5)cc4F)ccc3o2)CC1 [EXAMPLE-41, 5-[2-fluoro-4-(1H-tetrazol-1-yl)phenyl]-2-[1-(2-methoxyethyl)piperidin-4-yl]benzo[d]oxazole] | 148 to 152 | – | – |
| CC(C)NC(=O)c1ccc(-c2ccc3oc(C4CCN(C(=O)OC(C)C)CC4)nc3c2)cc1F [EXAMPLE-46, Isopropyl 4-{5-[3-fluoro-4-(isopropylcarbamoyl)phenyl]benzo[d]oxazol-2-yl}piperidine-1-carboxylate] | 147 to 150 | 53 | – |
| CNC(=O)c1ccc(-c2ccc3oc(C4CCN(C(=O)OC(C)C)CC4)nc3c2)cn1 [EXAMPLE-48, Isopropyl 4-{5-[6-(methylcarbamoyl)pyridin-3-yl]benzo[d]oxazol-2-yl}piperidine-1-carboxylate] | 158 to 161 | 26.7 | – |
| CC(C)OC(=O)N1CCC(c2nc3cc(-c4ccc(C(=O)O)cn4)ccc3o2)CC1 [EXAMPLE-34, 6-{2-[1-(isopropoxycarbonyl)piperidin-4-yl]benzo[d]oxazol-5-yl}nicotinic acid] | 239 to 242 | – | – |
| CC(C)OC(=O)N1CCC(c2nc3cc(-c4ccc(C(=O)NC5CC5)c(F)c4)ccc3o2)CC1 [EXAMPLE-50, Isopropyl 4-{5-[4-(cyclopropylcarbamoyl)-3-fluorophenyl]benzo[d]oxazol-2-yl}piperidine-1-carboxylate] | 162 to 165 | 38.7 | – |
| N[C@@H](CC(=O)N1CCn2c(nnc2C(F)(F)F)C1)Cc1cc(F)c(F)cc1F [Sitagliptin, sitagliptin, reference compound] | – | – | lowered AUCglucose (C57Bl/6J mice; [2]): 59%; lowered AUCglucose (C57Bl/6J mice; [1]): 50% |
| CC(C)OC(=O)N1CCC(c2nc3cc(-c4ccc(C(N)=O)cc4F)ccc3o2)CC1 [EXAMPLE-37, Isopropyl 4-[5-(4-carbamoyl-2-fluorophenyl)benzo[d]oxazol-2-yl]piperidine-1-carboxylate] | 194 to 197 | 6.56 | – |
| CC(C)CC(=O)N1CCC(c2nc3cc(-c4ccc(C(N)=O)c(F)c4)ccc3o2)CC1 [EXAMPLE-39, 2-Fluoro-4-{2-[1-(3-methylbutanoyl)piperidin-4-yl]benzo[d]oxazol-5-yl}benzamide] | 186 to 190 | 27.5 | – |
| CC(C)OC(=O)N1CCC(c2nc3cc(-c4ccc(C(=O)NCCO)c(F)c4)ccc3o2)CC1 [EXAMPLE-45, Isopropyl 4-{5-[3-fluoro-4-(2-hydroxyethylcarbamoyl)phenyl]benzo[d]oxazol-2-yl}piperidine-1-carboxylate] | 145 to 147 | 56.4 | – |
| CNS(=O)(=O)c1ccc(-c2ccc3oc(C4CCN(C(=O)OC(C)C)CC4)nc3c2)cc1 [EXAMPLE-47, Isopropyl 4-{5-[4-(N-methylsulfamoyl)phenyl]benzo[d]oxazol-2-yl}piperidine-1-carboxylate] | 179 to 181 | 33.1 | – |
| CC(C)OC(=O)N1CCC(c2nc3ccc(-c4ccc(C(F)F)cc4)cc3o2)CC1 [EXAMPLE-33, Isopropyl 4-{6-[4-(difluoromethyl)phenyl]benzo[d]oxazol-2-yl}piperidine-1-carboxylate] | 149 to 153 | 10.6 | – |
| NC(=O)c1ccc(-c2ccc3oc(C4CCN(c5ncc(F)cn5)CC4)nc3c2)cc1F [EXAMPLE-51, 2-Fluoro-4-{2-[1-(5-fluoropyrimidin-2-yl)piperidin-4-yl]benzo[d]oxazol-5-yl}benzamide] | 226 to 229 | 38.7 | – |
| CC(C)OC(=O)N1CCC(c2nc3ccc(-c4ccc(C(N)=O)c(F)c4)cc3o2)CC1 [EXAMPLE-44, Isopropyl 4-[6-(4-carbamoyl-3-fluorophenyl)benzo[d]oxazol-2-yl]piperidine-1-carboxylate] | 178 to 181 | 64.8 | EC50 (human GPR119; Table I): 25 to 50 nM |
| CS(=O)(=O)c1ccc(-c2nc3cc(C4CCN(c5ncc(F)cn5)CC4)ccc3o2)c(F)c1 [EXAMPLE-81] | 220 to 222 | – | activation at 10 µM (human GPR119; Table II): 43% |
| CC(C)OC(=O)N1CCC(c2nc3cc(-c4ccc(C(N)=O)cc4Cl)ccc3o2)CC1 [EXAMPLE-38, Isopropyl 4-[5-(4-carbamoyl-2-chlorophenyl)benzo[d]oxazol-2-yl]piperidine-1-carboxylate] | 178 to 182 | 16.6 | – |
| CC(C)OC(=O)N1CCC(c2ccc3oc(-c4ccc(S(C)(=O)=O)cc4F)nc3c2)CC1 [EXAMPLE-64, Isopropyl 4-{2-[2-fluoro-4-(methylsulfonyl)phenyl]benzo[d]oxazol-5-yl}piperidine-1-carboxylate] | – | – | lowered AUCglucose (C57Bl/6J mice; [2]): 24%; activation at 10 µM (human GPR119; Table II): 75%; EC50 (human GPR119; Table II): ≤ 25 nM |
